Common to all, as to assay: NCI-60 cell line screen, 48 h
In assay [1] the test system is HOP-92 NSCLC.
Assay [2] has as its system IGROV1 ovarian.
The test system of assay [3] is U251 CNS.
In assay [4] the test system is SF-295 CNS.
Assay [5] has as its system HCC-2998 colon.
Assay [6] deals with SK-MEL-2 melanoma.
In assay [7] the test system is NCI-H522 lung.
For assay [8], the system named is EKVX NSCLC.
Assay [9] deals with MCF7 breast.
The test system of assay [10] is OVCAR-5 ovarian.
Assay [11] concerns ACHN renal.
Assay [12] has as its system SW-620 colon.
For assay [13], the system named is RPMI-8226 leukemia.
Assay [14] relates to MDA-N.
Assay [15] deals with CCRF-CEM leukemia.
Assay [16] has as its system RXF 393 renal.
The test system of assay [17] is HOP-62 NSCLC.
Assay [18] relates to LOX IMVI melanoma.

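48-hour exposure; five concentrations; linearly interpolated endpoints. TGI is the concentration that stops growth completely.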

On to `C/C(=N/NC(=S)Nc1ccccc1C)c1ccccn1`, for which the TGI in assay [1] was 17 µM; in [2] it was 12.1 µM; in assay [3] it was 18.1 µM; in assay [4], 5.63 µM; in [5], 26 µM; in assay [6] it was 12.8 µM. The TGI came to 12.9 µM in assay [7]; 6.46 µM in assay [8]; 12.8 µM in assay [9]; 10.7 µM in assay [10]; 10.3 µM in assay [11]; 29.2 µM in [12]. Moreover, the TGI was greater than 55.8 µM in [13]; 20.1 µM in assay [14]; 14.4 µM in assay [15]; 13.2 µM in assay [16]; 8.99 µM in assay [17]; 15.7 µM in assay [18].

On to `CC1NC(=O)c2c(-c3ccccc3)nn(-c3ccccc3)c2NC1=O` (stereo not drawn), for which the TGI in assay [1], in [2], in assay [3], in [4], in [5] and in assay [6] was greater than 100 µM throughout. For the same compound, the TGI in assay [7], in [8], in [9], in assay [10], in assay [11] and in assay [12] was greater than 100 µM each time. Also, the TGI in assay [13], in assay [14], in assay [15], in [16], in assay [17] and in assay [18] was greater than 100 µM in each case.

For `CCN(CC)CCOc1ccc(N2Cc3cc(OC)c(OC)cc3C2=O)cc1`, the TGI in assay [1], in assay [2], in assay [3], in assay [4], in assay [5] and in assay [6] was greater than 100 µM throughout. Further, the TGI in assay [7], in assay [8], in [9], in assay [10], in [11] and in assay [12] was greater than 100 µM throughout. Also, the TGI in [13], in [14], in assay [15], in assay [16], in [17] and in assay [18] was greater than 100 µM each time.

For `Cc1nn(C(=O)c2ccc(Cl)cc2)c2c1C(c1ccccc1)SC(N)=N2` (stereo not drawn), the TGI in assay [1], in assay [2], in assay [3], in assay [4], in assay [5] and in assay [6] was greater than 10 µM each time. Besides, the TGI in [7], in assay [8], in [9], in assay [10], in [11] and in assay [12] was greater than 10 µM throughout. In addition, the TGI in assay [13], in [14], in assay [15], in assay [16], in [17] and in assay [18] was greater than 10 µM each time.

Take `Oc1c(Nc2ccccc2)cc2c3c1N=NC=3CCN=2`: the TGI in [1], in [2], in assay [3], in assay [4], in assay [5] and in assay [6] was greater than 100 µM in each case. The TGI in [7] was greater than 100 µM; in assay [8] it was greater than 100 µM; in [9], 69 µM; in assay [10], greater than 100 µM; in assay [11], greater than 100 µM; in [12], greater than 100 µM. For the same compound, the TGI was greater than 100 µM in assay [13]; 31.7 µM in assay [14]; 93.9 µM in assay [15]; greater than 100 µM in assay [16]; greater than 100 µM in [17]; 46.6 µM in [18].

`[N-]=[N+]=NCC(=O)c1c[nH]c(=O)[nH]c1=O`: the TGI in [1], in assay [2], in assay [3], in assay [4], in assay [5] and in assay [6] was greater than 100 µM in each case. Moreover, the TGI in [7], in assay [8], in [9], in assay [10], in assay [11] and in assay [12] was greater than 100 µM throughout. Moreover, the TGI in [13], in assay [14], in assay [15], in assay [16], in assay [17] and in assay [18] was greater than 100 µM each time.

In the case of `CCN(CC)CCC1CCCCN1CC(=O)N1c2ccccc2NC(=O)CC1C` (stereo not drawn), the TGI in assay [1], in assay [2], in [3], in [4], in assay [5] and in assay [6] was greater than 100 µM throughout. Further, the TGI in [7], in assay [8], in assay [9], in [10], in assay [11] and in assay [13] was greater than 100 µM throughout. Further, the TGI in [14], in assay [15], in [16], in assay [17] and in assay [18] was greater than 100 µM throughout.

With `CN(NC(=O)c1ccc(Cl)cc1)C1=NCCCCN1`, the TGI in [1], in assay [2], in assay [3], in [4], in [5] and in assay [6] was greater than 100 µM each time. For the same compound, the TGI in assay [7], in assay [8], in [9], in assay [10], in assay [11] and in assay [12] was greater than 100 µM in each case. Also, the TGI in assay [13], in assay [14], in assay [15], in assay [16], in [17] and in [18] was greater than 100 µM each time.

The values are drawn from PubChem BioAssay (NCI).
